Values quoted from earlier work as cited in US20230346708A1, “STABLE FORMULATIONS OF ANTI-CANCER PEPTIDES” (Oncolyze, Inc., priority 2020, published 2023).

Tested on: cancer cells
Settings: cancer cells vs normal cells; general statement, no data shown

ETFSDLWKLLKKWKMRRNQFWVKVQRG [PNC-28, p53 aa17-26-MRP anti-cancer peptide]
Tumor cell necrosis: induce tumor cell necrosis of cancer cells, but not normal cells
